Data set [1] can be described thus: MALDI-TOF MS of fragments formed in vitro during incubation of 33-mer in mouse plasma. Format: in vitro ADME. The note with it: 33-mer in mouse plasma at 37°C, 5 kDa MWCO filtrate or SDS-PAGE gel slice, sequence assigned by mass match. An excerpt: The extracts were combined.
The nature of data set [2]: MALDI-TOF MS of 33-mer fragments in plasma and pancreas after oral administration. To be noted: for Sample in which the 33-mer fragment was found: mice 6–20 weeks, 500–900 μg 33-mer p.o., plasma and pancreas 45–60 min after administration, sequence assigned by mass match.
Description: Plasma was fractionated in Amicon Ultra 10 kDa centrifugal filter units (Merck Millipore), Vivaspin 500, 5 kDa filter units (Sartorius), PD10 columns, Amicon Ultra 0.5 mL 10 kDa centrifugal filters, or SEP-PAK C18 Plus short cartridges (Waters), or they were ethanol-precipitated or acid-ethanol extracted. Slices from nonfixed gels were extracted overnight at 37°C in 100 μL of 50 mM NH4CO3 with or without 12.5 ng/μL Endoproteinase Glu-C Sequencing Grade (Roche Diagnostics). The gel slices were further extracted on a shaker for 15 min in 20 μL extraction buffer (1 : 2 (vol/vol) 50 mM NH4HCO3/acetonitrile). The extracts were combined.
Samples were dried in a vacuum concentrator (Eppendorf 5301) and reconstituted in 20 μL 5% acetic acid before desalting using POROS C18 matrix and elution onto a stainless steel 96-well MALDI target plate with 1 μL α-cyano-4-hydroxycinnamic acid (HCCA matrix) ready-made from Agilent (6 mg/mL in 30% acetonitrile, 30% methanol, and 0.1% TFA) for dried droplet crystallization. Analysis was done on Bruker Ultraflex with Daltonics flexAnalysis software, externally calibrated using a standard peptide mixture (Bruker, range: 1,000–3,200 Da). Spectra were recorded in positive linear mode and summed from 100 laser shots.
The MS mass of 84 fragments >800 Da was calculated. They were randomly generated from the 33-mer sequence, allowing for deamidation of up to two glutamine residues (only one deamidation for Mr <1500 Da) and for sodium and potassium ion adduct formation. Measured masses were matched to the predicted masses, using a difference of <0.5 Da as threshold. Masses from negative control samples were matched using a threshold of 1.0 and removed.
The nature of data set [3]: Biodistribution of 3H label after oral administration (scintillation counting, tissue/blood ratio). To be noted: NOD mice, shortly after administration (Figure 1(a)), 0.01 < p < 0.05, N = 2–4 mice.
Description: (§2) For initial evaluation of accumulation and elimination in blood, NOD mice (6–8 weeks) received 230–900 μCi ^3H-33-mer or ^3H-19-mer. […] Organs were incubated with SOLVABLE (Perkin-Elmer) at 55°C until dissolved and then with 30% hydrogen peroxide to decolorize the solution. Ultima Gold (Perkin Elmer) was added, and samples were counted 1 h later in a Packard 1600TR scintillation counter.
(§3) Specific activities (dpm/mg tissue) were calculated by dividing the counts by the respective weight of the sample that was measured. The tissue distribution was examined using the tissue/blood ratios. To compare responses in blood across different doses (230–900 μCi), data were normalized to a dosage of 100 μCi.
(§4) Before oral gavage, mice were starved for 4 h and were not fed until 20 min after.
(§5) One-way ANOVA with Tukey posttest was carried out using GraphPad Prism version 5.00 for Windows (GraphPad Software, San Diego, California, USA) to analyze the distribution of the label at each time point. The stomach and intestine were excluded from the analysis due to their large variation.
Data set [4] is described as follows: SDS-PAGE and fluorography of blood after i.v. or p.o. administration. To be noted: mice, data not shown.
For data set [5] the following is noted: mouse, in vivo, po.
Description: as §2, §3, §4, §5
The conditions of data set [6]: mouse, in vivo.
Description: Heparin-plasma was prepared from tail blood at 0°C and analysed by SDS-PAGE without further processing, after depletion of albumin and IgG using a commercial kit (Protea Biosciences) or after digestion with trypsin (incubation with 125 mM dithiothreitol, 0.05% SDS at 53°C, pH 7.5 for 45 min, followed by digestion with trypsin (Fluka) at 37°C). The gel was fixed in 15% formalin/25% ethanol and Coomassie-stained. For fluorography, the fixed gels were soaked in 7% glycerol and Amplify Fluorographic Reagent (GE Healthcare), each for 30 min, dried, and exposed on Amersham Hyperfilm MP at −80°C. Subsequently, the dried gels were rehydrated in 7% acetic acid for 2–4 h and Coomassie-stained.
For scintillation counting, gel slices were excised from the nonfixed gel, covered with 600 μL of 30% hydrogen peroxide, and heated at 50°C overnight before measurement.
For kinetics studies, using SDS-PAGE and fluorography, 230 μCi ^3H-33-mer or 770 μCi of ^3H-19-mer was used for i.v. administration and 620–1200 μCi ^3H-33-mer was used for oral administration to NOD mice aged 6–8 weeks.
Blood and organs were sampled after 1, 24 and 72 h. […] Kinetics of 3H-33-mer and 3H-19-mer in mouse blood following i.v. and p.o. administration. 3H-33-mer (A) or 3H-19-mer (B) was given i.v. to NOD mice (6-8 weeks). Tail blood was analyzed by SDS-PAGE and fluorography at the indicated time points (min). CT: control 33-mer/19-mer. In (A, right), 660 µg of unlabeled 33-mer was injected prior to the labeled peptide. (C) 3H-33-mer was administered p.o. to NOD mice (6-8 weeks). Blood was analyzed after 0.5, 1 and 20 h. All lanes were loaded with the same amount of radioactivity. CT is control 33-mer. (D) Fluorogram of in vitro incubation of blood plasma from a C57BL/6 mouse with 33-mer (28.6 ng/µl or 222.000 dpm/µl) for 0-4 h. CT is control 33-mer. (E) Plasma from mice, that had received 3H-labelled 33-mer one hour earlier by i.v. or p.o. administration, was depleted of albumin and IgG. […] Data were normalized between lanes to contain identical amounts of radioactivity outside the albumin/IgG region. […]
Data set [7] is described as follows: LC-MS detection of 33-mer in plasma. It is filed as in vivo, BALB/c mice. To be noted: BALB/c, methanol-TFA precipitation. On the procedure:
BALB/c mice, 4–16 weeks of age, were given 650–900 μg of 33-mer, either i.v. or p.o., and heparin-plasma was prepared 15–60 min later at 0°C. Protein inhibitors were added to the tissues that were homogenized, mixed with internal standard (GENESEQP:AZF58701), and precipitated with 50% methanol, 1% TFA, and centrifugation. The samples were analyzed using an Orbitrap XL (Thermo Scientific) equipped with a Nano LC (Easy nLC II, Thermo Scientific). The chromatographic system was a 10 cm, ID 75 μm, 3 μm C18-A2 column (Thermo Scientific) with a flow of 300 nL/min with 0.1% formic acid as mobile phase A and 0.1% formic acid in acetonitrile as B. The MS scan was performed using a resolution of 30000 and a scan range of 300–2000 m/z.

The nature of data set [8]: In vitro incubation of 33-mer in blood plasma, SDS-PAGE and fluorography. Format: in vitro ADME, C57BL/6 mouse. To be noted: C57BL/6 plasma with 33-mer 28.6 ng/µl, 0-4 h. The text has this: (§1) Supplementary file 2424306.f1.docx: Fig Supp 1. […] Abbreviations are as in Fig 1.Fig Supp 2. […] CT: control 33-mer/19-mer. […] CT is control 33-mer. […] CT is control 33-mer.
The subject of a further data set is albumin and IgG. As to the kind of experiment: Depletion of albumin and IgG from plasma, radioactivity in gel slices. Format: in vivo, mouse.
Excerpt: as §1

The subject of a further data set is trypsin. Put plainly: Trypsin digestion of plasma/serum followed by SDS-PAGE and fluorography. Format: in vitro ADME. To be noted: serum; dithiothreitol/SDS at 53°C pH 7.5 45 min, then trypsin at 37°C.
Excerpt: as §1

The conditions of data set [9]: mouse, in vivo. The source holds these as a separate data set.
Description: (§6) Standard tissue sections were dipped in a 1 : 1 dilution in water of melted Kodak NTB Emulsion with 10% Amplify Fluorographic Reagent (GE Healthcare), air-dried, stored in the dark at 4°C with desiccant for 1–3 weeks, developed in Kodak D19 developer, fixed in Ilford Rapid Fixer, HE stained, and examined in an Olympus Bx51 microscope (UPlanSApo 20x, 0.40) equipped with a Colorview 1 camera and Analysis getIT software (Olympus).
Data set [10] in a line: Autoradiography of mouse tissues. To be noted: 1 h after oral administration.
Description: as §6
A further data set deals with digestive proteases. To be noted: cited from earlier work.

Consider 32 molecules from paper PMC5067331, “Large Gliadin Peptides Detected in the Pancreas of NOD and Healthy Mice following Oral Administration” (Journal of Diabetes Research, 2016).

Entries after “also recorded” stand apart in the source; their conditions may differ. Read-outs that look alike come from different tables or passages of the source. Ends that are not written are not given here.

YPQPQPF: the “Sample (filtrate or gel slice range) in which the fragment was found” value (from here on “Sample (filtrate or gel slice range)”) in data set [1] is “Filtrate”. Besides, the “Sample in which the 33-mer fragment was found” value in data set [2] is given as “Plasma, NOD”.

Consider “PFPQPELPYPQPELPYPQPELPYPQPQPF [33-mer fragment formed in mouse plasma in vitro, MALDI-TOF MS mass match]”, for which, in data set [1], the “Sample (filtrate or gel slice range)” value is 10–12 kDa.

On to “ELPYPQPELPYPQPEL [33-mer fragment formed in mouse plasma in vitro, MALDI-TOF MS mass match]”, for which, in [1], the “Sample (filtrate or gel slice range)” value is reported as “Filtrate”.

Consider “QPFPQPELPYPQPELPYPQPELPYPQPQPF [33-mer fragment formed in mouse plasma in vitro, MALDI-TOF MS mass match]”, for which the “Sample (filtrate or gel slice range)” value in data set [1] was 14–18 kDa.

Regarding “ELPYPQPELPYPQPELPYPQPQPF [33-mer fragment formed in mouse plasma in vitro, MALDI-TOF MS mass match]”, in [1], the “Sample (filtrate or gel slice range)” value is given as 14–18 kDa.

In the case of LPYPQPELPYPQPQPF, the “Sample in which the 33-mer fragment was found” value in data set [2] is reported as “Pancreas, NOD, C57BL/6”.

As to YPQPELPYPQPQPF, the “Sample (filtrate or gel slice range)” value in data set [1] is reported as “Filtrate”. The “Sample in which the 33-mer fragment was found” value in data set [2] is on record as “Plasma, NOD, C57BL/6”.

Regarding LQLQPFPQPELPYPQPE, the “Sample (filtrate or gel slice range)” value in data set [1] is 4–6 kDa. Moreover, the “Sample in which the 33-mer fragment was found” value in [2] is “Plasma, NOD”.

Regarding `N[C@@H](Cc1ccc(O)cc1)C(=O)O` [3H-tyrosine, tyrosine], the “Level of label in the pancreas relative to blood” value in data set [3] was “accumulated similarly to the 33- and 19-mer”. The “HMW band after injection” value in data set [4] is “appearance of the HMW band”.

Turning to LQLQPFPQPELPYPQPELPYPQPELPYP, the “Sample in which the 33-mer fragment was found” value in [2] is recorded as “Plasma, NOD, C57BL/6”.

For LQPFPQPELPYPQPELPYPQPELPYPQPQ, in data set [2], the “Sample in which the 33-mer fragment was found” value was “Plasma, NOD, C57BL/6”.

For the molecule “LQLQPFPQPELPYPQPELPYPQPELPYPQP [33-mer fragment formed in mouse plasma in vitro, MALDI-TOF MS mass match]”, the “Sample (filtrate or gel slice range)” value in data set [1] is 14–18 kDa.

As for LQLQPFPQPE, the “Sample in which the 33-mer fragment was found” value in data set [2] is recorded as “Pancreas, C57BL/6”.

With ELPYPQPELP, in data set [2], the “Sample in which the 33-mer fragment was found” value is reported as “Plasma, NOD pancreas, C57BL/6”.

For “LQLQPFPQPELPYPQPELPYPQPELPYPQPQ [33-mer fragment formed in mouse plasma in vitro, MALDI-TOF MS mass match]”, in data set [1], the “Sample (filtrate or gel slice range)” value is 14–17 kDa.

With QLQPFPQPEL, in data set [2], the “Sample in which the 33-mer fragment was found” value is reported as “Pancreas, C57BL/6”.

Take ELPYPQPELPYP: the “Sample in which the 33-mer fragment was found” value in [2] is reported as “Plasma, NOD pancreas, NOD”.

“FPQPELPYPQPELPYPQPELPYPQPQPF [33-mer fragment formed in mouse plasma in vitro, MALDI-TOF MS mass match]”: the “Sample (filtrate or gel slice range)” value in data set [1] was 10–12 kDa.

For the molecule “ELPYPQPELPYPQPELPY [33-mer fragment formed in mouse plasma in vitro, MALDI-TOF MS mass match]”, the “Sample (filtrate or gel slice range)” value in data set [1] is given as “Filtrate”.

As to QPFPQPELPYPQPELPYPQPELPYPQPQP, in data set [2], the “Sample in which the 33-mer fragment was found” value is “Plasma, NOD, C57BL/6”.

For the molecule QPFPQPELP, in data set [2], the “Sample in which the 33-mer fragment was found” value is “Plasma, NOD”.

Regarding QLQPFPQPELP, in data set [2], the “Sample in which the 33-mer fragment was found” value is “Plasma, NOD”.

For QPFPQPELPY, in data set [1], the “Sample (filtrate or gel slice range)” value was “Filtrate”. In addition, the “Sample in which the 33-mer fragment was found” value in [2] is given as “Pancreas C57BL/6”.

As to ELPYPQPQPF, the “Sample in which the 33-mer fragment was found” value in data set [2] was “Plasma, NOD”.

On to “H-LQLQPFPQPELPYPQPELPYPQPELPYPQPQPF-OHY [33-mer]”, for which, in [5], the “Absorption from the intestine” value was “readily absorbed from the intestine”; the “Level of label in the pancreas relative to blood” value was “high level of label”; the “Presence of label at early time points” value is “present 1/2 h after administration and still remained 3 hours after oral administration”. For the same molecule, the “Emergence of higher molecular weight species (HMW) in blood after injection” value in [6] (iv) is listed as “After 1 h, higher molecular weight species (HMW) emerged”. In addition, the “33-mer signal in blood after oral administration” value in data set [6] (po) is “still present in the blood, although in low amounts”. The “Intact peptide in plasma after oral administration” value in data set [7] (650 µg p.o., 60 min) is “detected intact peptide; also recorded: close to the detection limit, and the peptide was not detected in all mice”. For the same molecule, the “Intact peptide in plasma after intravenous administration” value in data set [7] (850 µg i.v., 15, 30 and 60 min) was “detected intact peptide”. Further, the “Formation of 12 kDa and HMW signals in vitro” value in data set [8] is given as “the 12 kDa signal, but not the HMW signal, also formed in vitro”. Further, the “Sample (filtrate or gel slice range)” value in data set [1] is listed as 4–6 kDa, 6–9 kDa, 14–17 kDa. Besides, in the data set on albumin and IgG (3H-33-mer added to blood in vitro, or cold peptide injected prior to labeled peptide), the “Label removed by depletion of albumin and IgG” value is listed as 14-15%. The “Label removed by depletion of albumin and IgG” value with albumin and IgG (blood of mice that had received 33-mer, regardless of route, plasma 1 h after administration) amounted to 35%. Besides, the Degradation by trypsin entry in the data set on trypsin was “degrades albumin, but not 33-mer”. Moreover, the “Difference between i.v. and p.o. administration in autoradiography” value in data set [9] is listed as “No difference was seen”. Further, in data set [2] (after oral 33-mer), the “Longest peptide detected in blood” value is given as 32-mer. Also, the “Label in zymogen granules of the pancreas” value in data set [10] is on record as “high accumulation of label”. Moreover, the “Label in all other tissues examined” value in data set [10] (lung, kidney, ileum) is on record as “homogenous labeling was observed”. In addition, the “Resistance to digestive proteases” value with digestive proteases was “resistant to digestive proteases”.

Turning to “ELPYPQPEL [33-mer fragment formed in mouse plasma in vitro, MALDI-TOF MS mass match]”, in data set [1], the “Sample (filtrate or gel slice range)” value was “Filtrate”.

Turning to ELPYPQPELPYPQ, the “Sample in which the 33-mer fragment was found” value in [2] was “Plasma, NOD”.

QPFPQPELPYPQPELPYPQPELPYPQPQ: the “Sample in which the 33-mer fragment was found” value in data set [2] is reported as “Plasma, NOD, C57BL/6”.

For H-LGQQQPFPPQQPYPQPQPF-OHY [19-mer], in data set [5], the “Absorption from the intestine” value was “readily absorbed from the intestine”; the “Level of label in the pancreas relative to blood” value was “high level of label”; the “Presence of label at early time points” value is “present 1/2 h after administration and still remained 3 hours after oral administration”. For the same molecule, the “Resistance to digestive proteases” value in the data set with digestive proteases is reported as “resistant to digestive proteases”.

As for “QLQPFPQPELPYPQPELPYPQPELPYPQPQP [33-mer fragment formed in mouse plasma in vitro, MALDI-TOF MS mass match]”, the “Sample (filtrate or gel slice range)” value in data set [1] is reported as 14–17 kDa.

LQLQPFPQPELPYPQPELPYPQPELPYPQPQP: the “Sample (filtrate or gel slice range)” value in data set [1] is 4–6 kDa. In addition, in data set [2], the “Sample in which the 33-mer fragment was found” value is “Plasma, C57BL/6”. Further, in the data set with digestive proteases, the “Stability as originally described” value is “stable”.

For FPQPELPY, in data set [2], the “Sample in which the 33-mer fragment was found” value is listed as “Plasma, C57BL/6”.
